From patent US10738127B2, “Monoclonal antibodies prevent cell surface protein shedding and block tumor growth” (VERITAS BIOTECNOLOGIA LTDA, priority 2016, dated 2020)

Legend:
[1] = test system: E-cadherin linker segment; assay: Titration of immunized mice sera against the E-cadherin linker segment peptides (FIG. 6); format: binding; settings: immunization of mice
Text: Polyclonal antibodies against synthetic peptides pep_VLS02 (RKAQPVEAGLQIPAC; SEQ ID NO: 4) and pep_VLS03 (VEAGLQIPAC; SEQ ID NO: 3) were produced according to methods known in the art.

[2] = target: MMP-9 (Homo sapiens, UniProt P14780); assay: MMP-9 enzymatic activity / E-cadherin cleavage assay; format: biochemical
Method: The synthetic peptide pep_VLS02 was used as a competitive inhibitor of MMP-9. The MMP-9 enzymatic activity is reduced in the presence of synthetic peptide (FIG. 10). The inhibitory effect of pep_VLS02 against cleavage of E-cadherin opens a new window for the development of new inhibitors.
On the other hand, when the polyclonal antibody pAb_VLS02 is added to the assay, in the presence of its corresponding peptide, the MMP-9 activity was reestablished (FIG. 10). Thus, pep_VLS02 and its correspondent polyclonal antibody modulate MMP-9 activity and inhibit the E-cadherin cleavage.

MMP-9, sequence (P14780 94-707, species assumed): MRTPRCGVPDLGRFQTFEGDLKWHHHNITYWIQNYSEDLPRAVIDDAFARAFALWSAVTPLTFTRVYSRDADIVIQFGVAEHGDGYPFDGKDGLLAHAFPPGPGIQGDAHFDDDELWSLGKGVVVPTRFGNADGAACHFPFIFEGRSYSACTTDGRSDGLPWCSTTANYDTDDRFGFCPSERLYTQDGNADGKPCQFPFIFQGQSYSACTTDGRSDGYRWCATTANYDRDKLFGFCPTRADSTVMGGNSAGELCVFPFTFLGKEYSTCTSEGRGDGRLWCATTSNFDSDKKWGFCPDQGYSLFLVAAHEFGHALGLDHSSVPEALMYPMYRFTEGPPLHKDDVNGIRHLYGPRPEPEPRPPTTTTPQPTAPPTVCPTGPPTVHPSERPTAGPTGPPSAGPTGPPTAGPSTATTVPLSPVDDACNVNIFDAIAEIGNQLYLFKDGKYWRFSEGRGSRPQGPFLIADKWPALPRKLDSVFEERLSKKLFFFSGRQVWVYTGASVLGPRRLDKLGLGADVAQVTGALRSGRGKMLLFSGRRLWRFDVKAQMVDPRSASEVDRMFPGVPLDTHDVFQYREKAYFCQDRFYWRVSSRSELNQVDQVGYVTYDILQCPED

E-cadherin cleavage by a metalloprotease ([2]; FIG. 10)	MMP-9 enzymatic activity ([2]; in the presence of synthetic peptide as competitive inhibitor)	Sequence	immunogenic capacity [1]
inhibit E-cadherin cleavage	reduced	RKAQPVEAGLQIPAC [pep_VLS02, synthetic antigenic peptide covering the cleavage site of E-cadherin plus a cysteine residue at the end]	confirmed the immunogenic capacity
–	–	VEAGLQIPAC [pep_VLS03, synthetic antigenic peptide of the E-cadherin linker segment plus a cysteine residue]	confirmed the immunogenic capacity
